Reference: patent publication US20230219979A1, “PYRAZOLO[1,5-a]PYRIDINE COMPOUND, PREPARATION METHOD THEREFOR AND USE THEREOF” (SHENZHEN ZHONGGE BIOLOGICAL TECHNOLOGY CO., LTD., priority 2019, published 2023)

Tests used:
[1] = target: T1, Ba/F3-KIF5B-RET cell (Homo sapiens, UniProt P07949); assay: CellTiter-Glo luminescence assay, inhibitory activity against Ba/F3-KIF5B-RET cell; type: cell-based; details: 72 h, read-out: Ba/F3-KIF5B-RET cell activity
T1 construct: fused on or other part: P33176 (Kinesin-1 heavy chain)
Source text: (C) In Vitro Screening Experiment - CellTiter-Glo Luminescence Assay for Testing The inhibitory activity of compounds against Ba/F3-KIF5B-RET cell
• 1. The mammalian cell expression vector containing human KIF5B-RET cDNA was introduced into Ba/F3 cells using the Neon® transfection system method, and the surviving clones screened by puromycin were subjected to cell growth inhibitory function experiments and Western blotting to verify cell lines with stable and high expression of RET. • 2. Cells were cultured in RPMI 1640 medium containing 10% fetal bovine serum, 1% penicillin-streptomycin, and 2 µg/mL puromycin, and then placed in a 37° C., 5% carbon dioxide cell incubator. • 3. The test compound (5 mM stock) was diluted 2.5 folds to […] with 100% dimethyl sulfoxide; and the compound was diluted into 10 concentrations at an equal ratio of 1:3 in a 384-well dilution plate. • 4. 0.2 µL of the serially diluted compound was added to a 384-well cell culture plate (Corning, 3570) using an Echo 550 pipetting system, 2 replicate wells for each concentration, and the final concentration of dimethyl sulfoxide was 0.5% (v/v). The gradient concentrations of the test compound were 5000, 1666.7, 555.5, 185.18, 61.72, 20.57, 6.858, 2.286, 0.764, 0.254 nM. • 5. 40 µL of Ba/F3-KIF5B-RET cell suspension containing 800 cells was added to each well, and incubated for 72 h in a 5% CO2 cell incubator. • 6. 20 µL of Cell Titer-Glo reagent was added to each well of the cell culture plate, and the culture system was then shaken and mixed thoroughly for 2 min to lyse the cells, the cells were then incubated at room temperature for 30 min, and the […] signal values were then read with an Envision 2104 microplate reader. • 7. By fitting the data with XLFit 5.0 based on the parameters formula, the IC50 value was calculated as: • [formula]

[2] = target: VEGFR2 kinase (Homo sapiens, UniProt P35968); assay: HTRF method for testing the inhibitory activity of compounds against VEGFR2; type: biochemical
[3] = target: Wild-type RET kinase (Homo sapiens, UniProt P07949); assay: HTRF method for testing the inhibitory activity of compounds against RET; type: biochemical; details: HTRF; read-out: Wild-type RET kinase
[4] = target: RET G810S kinase (Homo sapiens, UniProt P07949, G810S); assay: HTRF method for testing the inhibitory activity against RET G810S; type: biochemical; details: for IC50: HTRF; for inhibitory activity against G810S (in words): mutant strain of RET kinase
[5] = target: RET G810R kinase (Homo sapiens, UniProt P07949, G810R); assay: HTRF method for testing the inhibitory activity against RET G810R; type: biochemical; details: for IC50: HTRF; for inhibitory activity against G810R (in words): mutant strain of RET kinase
RET G810R kinase, sequence (P07949 29-1114 G810R): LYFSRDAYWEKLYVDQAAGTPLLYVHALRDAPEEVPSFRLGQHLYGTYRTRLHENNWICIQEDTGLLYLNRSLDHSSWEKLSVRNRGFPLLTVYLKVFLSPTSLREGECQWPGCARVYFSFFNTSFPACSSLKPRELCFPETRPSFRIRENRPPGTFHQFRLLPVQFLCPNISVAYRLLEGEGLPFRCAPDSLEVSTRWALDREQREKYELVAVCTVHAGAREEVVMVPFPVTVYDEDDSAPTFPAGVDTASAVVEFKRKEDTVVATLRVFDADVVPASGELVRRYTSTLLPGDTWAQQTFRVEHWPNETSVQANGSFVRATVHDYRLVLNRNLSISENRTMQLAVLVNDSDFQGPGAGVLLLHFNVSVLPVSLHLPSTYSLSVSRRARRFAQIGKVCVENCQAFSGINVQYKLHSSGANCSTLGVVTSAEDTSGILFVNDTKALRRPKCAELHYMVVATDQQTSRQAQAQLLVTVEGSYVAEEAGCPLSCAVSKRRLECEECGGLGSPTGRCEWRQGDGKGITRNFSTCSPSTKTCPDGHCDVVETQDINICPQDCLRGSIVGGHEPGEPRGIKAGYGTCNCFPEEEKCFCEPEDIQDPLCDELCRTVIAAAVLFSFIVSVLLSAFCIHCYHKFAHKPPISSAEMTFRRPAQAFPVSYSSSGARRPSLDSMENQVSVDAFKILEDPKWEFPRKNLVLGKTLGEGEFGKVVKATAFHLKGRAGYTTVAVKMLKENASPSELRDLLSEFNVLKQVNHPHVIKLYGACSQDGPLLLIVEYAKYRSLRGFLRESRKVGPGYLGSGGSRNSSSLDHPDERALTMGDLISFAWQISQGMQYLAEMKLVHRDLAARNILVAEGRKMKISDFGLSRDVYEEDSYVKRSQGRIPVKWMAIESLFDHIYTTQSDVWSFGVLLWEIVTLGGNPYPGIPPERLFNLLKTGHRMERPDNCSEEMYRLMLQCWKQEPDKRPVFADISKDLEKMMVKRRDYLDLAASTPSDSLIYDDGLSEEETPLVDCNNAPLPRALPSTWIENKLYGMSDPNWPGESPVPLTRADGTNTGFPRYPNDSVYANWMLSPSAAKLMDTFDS

Wild-type RET kinase, sequence (P07949 29-1114): as the sequence (P07949 29-1114 G810R) above, with R782G counted along it
RET G810S kinase, sequence (P07949 29-1114 G810S): as the sequence (P07949 29-1114 G810R) above, with R782S counted along it
VEGFR2 kinase, sequence (P35968 20-1356): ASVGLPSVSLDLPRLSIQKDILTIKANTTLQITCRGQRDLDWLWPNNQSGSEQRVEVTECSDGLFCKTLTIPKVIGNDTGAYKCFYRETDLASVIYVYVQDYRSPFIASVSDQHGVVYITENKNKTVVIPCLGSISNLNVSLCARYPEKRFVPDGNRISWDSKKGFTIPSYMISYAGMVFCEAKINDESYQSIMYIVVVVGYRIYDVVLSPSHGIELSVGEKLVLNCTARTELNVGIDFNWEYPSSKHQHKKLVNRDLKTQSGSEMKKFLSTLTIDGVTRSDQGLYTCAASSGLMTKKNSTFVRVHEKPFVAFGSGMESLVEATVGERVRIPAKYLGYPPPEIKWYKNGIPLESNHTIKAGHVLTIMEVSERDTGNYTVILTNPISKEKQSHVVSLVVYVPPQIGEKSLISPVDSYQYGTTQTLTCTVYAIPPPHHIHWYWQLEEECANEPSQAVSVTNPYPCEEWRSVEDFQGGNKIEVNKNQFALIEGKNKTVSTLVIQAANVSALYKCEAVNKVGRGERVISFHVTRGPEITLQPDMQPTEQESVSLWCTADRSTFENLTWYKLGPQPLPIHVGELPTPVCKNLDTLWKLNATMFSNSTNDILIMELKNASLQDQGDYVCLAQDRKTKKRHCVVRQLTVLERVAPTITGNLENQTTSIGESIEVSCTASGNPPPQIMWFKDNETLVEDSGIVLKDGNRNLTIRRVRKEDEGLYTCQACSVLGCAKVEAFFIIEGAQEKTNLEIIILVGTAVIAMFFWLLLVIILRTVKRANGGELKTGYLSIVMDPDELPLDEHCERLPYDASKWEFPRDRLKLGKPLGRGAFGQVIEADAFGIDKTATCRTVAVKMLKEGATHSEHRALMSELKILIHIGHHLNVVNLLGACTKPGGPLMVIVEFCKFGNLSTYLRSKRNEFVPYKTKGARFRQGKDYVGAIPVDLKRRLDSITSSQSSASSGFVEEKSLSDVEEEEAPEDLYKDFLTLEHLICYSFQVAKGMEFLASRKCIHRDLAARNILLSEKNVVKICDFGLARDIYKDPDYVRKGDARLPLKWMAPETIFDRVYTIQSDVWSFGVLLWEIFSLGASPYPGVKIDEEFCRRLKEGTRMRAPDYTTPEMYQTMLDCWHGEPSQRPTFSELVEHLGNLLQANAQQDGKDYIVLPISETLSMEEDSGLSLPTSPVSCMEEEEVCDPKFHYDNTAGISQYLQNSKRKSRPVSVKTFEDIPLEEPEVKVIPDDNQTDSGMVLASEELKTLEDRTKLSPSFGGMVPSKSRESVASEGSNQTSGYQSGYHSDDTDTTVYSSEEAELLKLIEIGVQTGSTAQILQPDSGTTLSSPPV
T1 sequence (P07949 whole entry, stated change not applied, the tested form may be a part): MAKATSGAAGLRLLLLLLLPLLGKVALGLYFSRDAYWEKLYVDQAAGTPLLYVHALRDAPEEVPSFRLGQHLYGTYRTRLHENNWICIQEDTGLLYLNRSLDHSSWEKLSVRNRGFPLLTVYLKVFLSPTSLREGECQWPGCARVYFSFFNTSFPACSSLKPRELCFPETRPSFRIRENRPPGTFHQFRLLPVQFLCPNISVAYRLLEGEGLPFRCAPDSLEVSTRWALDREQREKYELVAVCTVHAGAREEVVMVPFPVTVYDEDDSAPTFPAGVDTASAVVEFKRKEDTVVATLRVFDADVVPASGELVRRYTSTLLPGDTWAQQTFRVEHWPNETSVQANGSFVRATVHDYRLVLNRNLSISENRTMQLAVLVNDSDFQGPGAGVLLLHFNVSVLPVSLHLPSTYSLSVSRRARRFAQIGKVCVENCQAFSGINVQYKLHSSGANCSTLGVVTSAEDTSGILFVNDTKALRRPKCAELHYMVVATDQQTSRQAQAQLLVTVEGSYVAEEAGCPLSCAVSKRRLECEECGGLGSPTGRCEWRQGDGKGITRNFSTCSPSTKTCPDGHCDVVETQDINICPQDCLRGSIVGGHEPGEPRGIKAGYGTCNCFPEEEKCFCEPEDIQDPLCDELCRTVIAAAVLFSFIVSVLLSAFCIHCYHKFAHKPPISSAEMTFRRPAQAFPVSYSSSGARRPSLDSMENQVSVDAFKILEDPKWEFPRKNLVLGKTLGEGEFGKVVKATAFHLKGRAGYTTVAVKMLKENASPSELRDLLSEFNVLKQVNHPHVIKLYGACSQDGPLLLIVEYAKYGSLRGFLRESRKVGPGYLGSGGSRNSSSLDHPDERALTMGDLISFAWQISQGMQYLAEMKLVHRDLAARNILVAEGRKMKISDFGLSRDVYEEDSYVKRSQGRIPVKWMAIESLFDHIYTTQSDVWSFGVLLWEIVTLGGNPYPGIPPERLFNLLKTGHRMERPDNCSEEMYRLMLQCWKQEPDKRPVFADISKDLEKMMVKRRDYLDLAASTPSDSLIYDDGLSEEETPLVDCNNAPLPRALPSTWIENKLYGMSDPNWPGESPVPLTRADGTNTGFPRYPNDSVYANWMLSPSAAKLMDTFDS

| Structure (SMILES) | GI50 [1] | IC50 [2] | IC50 [3] | IC50 [4] | inhibitory activity against G810S (in words) [4] | IC50 [5] | inhibitory activity against G810R (in words) [5] |
| --- | --- | --- | --- | --- | --- | --- | --- |
| COc1ccc(CN2C3CC2CN(c2cnc(-c4cc(OCC(C)(C)C#N)cn5ncc(C#N)c45)cn2)C3)cn1 [Compound 39, 6-(2-cyano-2-methylpropoxy)-4-(5-(6-((6-methoxypyridin-3-yl)methyl)-3,6-diazabicyclo[3.1.1]heptan-3-yl)pyrazinpyridin-2-yl)pyrazolo[1,5-a]pyridine-3-carbonitrile] | 15.6 nM | 259 nM | 1.25 nM | – | – | – | – |
| COc1ccc(CN2C3CC2CN(c2cnc(-c4cc(OCC5C[C@H]6CC[C@@H](C5)N6)cn5ncc(C#N)c45)cn2)C3)cn1 (stereo partly drawn) [Compound 40, 6-(((1R, 5S)-8-azabicyclo[3.2.1]oct-3-yl)methoxy)-4-(5-(6-((6-methoxypyridine-3-yl)methyl)-3,6diazabicyclo[3.1.1]heptan-3-yl)pyrazin-2-yl)pyrazolo[1,5-a]pyridine-3-carbonitrile] | 208 nM | 112 nM | 0.86 nM | – | – | – | – |
| CNc1cc(-c2ccc(N3CC4CC(C3)N4Cc3ccc(OC)nc3)nc2)c2c(C#N)cnn2c1 [Compound 47, 4-(6-(6-((6-methoxypyridin-3-yl)methyl)-3,6-diazabicyclo[3.1.1]heptyl-3-yl)pyridin-3-yl)-6-(methylamino)pyrazolo[1,5-a]pyridine-3-carbonitrile] | 1.42 nM | 33.7 nM | 0.04 nM | 1.23 nM | good inhibitory activity | 8.93 nM | good inhibitory activity |
| COc1ccc(CN2C3CC2CN(c2ccc(-c4cc(Br)cn5ncc(C#N)c45)cn2)C3)cn1 [Compound 48] | 105 nM | 875 nM | 2.89 nM | 13 nM | good inhibitory activity | 63.2 nM | good inhibitory activity |
| COc1ccc(CN2C3CC2CN(c2ccc(-c4cc(NCCF)cn5ncc(C#N)c45)cn2)C3)cn1 [Compound 49, 6-((2-fluoroethyl)amino)-4-(6-(6-((6-methoxypyridin-3-yl)methyl)-3,6-diazabicyclo[3.1.1]hept-3-yl)pyridin-3-yl)pyrazolo[1,5-a]pyridine-3-carbonitrile] | 1.52 nM | 28.4 nM | 0.19 nM | 0.53 nM | good inhibitory activity | 1.85 nM | good inhibitory activity |
| COc1ccc(CN2C3CC2CN(c2ccc(-c4cc(NCC(F)F)cn5ncc(C#N)c45)cn2)C3)cn1 [Compound 50] | 5.75 nM | 59.3 nM | 0.13 nM | 1.35 nM | good inhibitory activity | 5.65 nM | good inhibitory activity |
| COc1ccc(CN2C3CC2CN(c2ccc(-c4cc(N5CCCC5)cn5ncc(C#N)c45)cn2)C3)cn1 [Compound 55, 4-(6-(6-((6-methoxypyridin-3-yl)methyl)-3,6-diazabicyclo[3.1.1]heptyl-3-yl)pyridin-3-yl)-6-(pyrrolidin-1-yl)pyrazolo[1,5-a]pyridine-3-carbonitrile] | 6.77 nM | 8.48 nM | 0.49 nM | – | – | – | – |
| COc1ccc(CN2C3CC2CN(c2ccc(-c4cc(NCC(F)(F)F)cn5ncc(C#N)c45)cn2)C3)cn1 [Compound 56, 4-(6-(6-((6-methoxypyridin-3-yl)methyl)-3,6-diazabicyclo[3.1.1]heptan-3-yl)pyridin-3-yl)-6-((2,2,2-trifluoroethyl)amino)pyrazolo[1,5-a]pyridine-3-carbonitrile] | 8.53 nM | 103 nM | 0.2 nM | 4.73 nM | good inhibitory activity | 19.3 nM | good inhibitory activity |
| CCCNc1cc(-c2ccc(N3CC4CC(C3)N4Cc3ccc(OC)nc3)nc2)c2c(C#N)cnn2c1 [Compound 57, 4-(6-(6-((6-methoxypyridin-3-yl)methyl)-3,6-diazabicyclo[3.1.1]heptan-3-yl)pyridin-3-yl)-6-(propylamino)pyrazolo[1,5-a]pyridine-3-carbonitrile] | 1.24 nM | 31.3 nM | 0.32 nM | 2.33 nM | good inhibitory activity | 10.6 nM | good inhibitory activity |
| COc1ccc(CN2C3CC2CN(c2ccc(-c4cc(NCC(=O)N(C)C)cn5ncc(C#N)c45)cn2)C3)cn1 [Compound 59, 2-((3-cyano-4-(6-(6-((6-methoxypyridin-3-yl)methyl)-3,6-diazabicyclo[3.1.1]heptan-3-yl)pyridin-3-yl)pyrazolo[1,5-a]pyridin-6-yl)amino)-N,N-dimethylacetamide] | 11.9 nM | 93.8 nM | 1.69 nM | – | – | – | – |
| COc1ccc(CN2C3CC2CN(c2ccc(-c4cc(N(C)CCN(C)C)cn5ncc(C#N)c45)cn2)C3)cn1 [Compound 61] | 60.4 nM | 482 nM | 1.1 nM | – | – | – | – |
| CCNc1cc(-c2ccc(N3CC4CC(C3)N4Cc3ccc(OC)nc3)nc2)c2c(C#N)cnn2c1 [Compound 62, 6-(ethylamino)-4-(6-(6-((6-methoxypyridin-3-yl)methyl)-3,6-diazabicyclo[3.1.1]heptan-3-yl)pyridin-3-yl)pyrazolo[1,5-a]pyridine-3-carbonitrile] | 1.82 nM | 20 nM | 0.21 nM | 0.8 nM | good inhibitory activity | 6.22 nM | good inhibitory activity |
| COc1ccc(CN2C3CC2CN(c2ccc(-c4cc(NCC(C)(C)O)cn5ncc(C#N)c45)cn2)C3)cn1 [Compound 63, 6-((2-hydroxy-2-methylpropyl)amino)-4-(6-(6-((6-methoxypyridin-3-yl)methyl)-3,6-diazabicyclo[3.1.1]heptan-3-yl)pyridin-3-yl)pyrazolo[1,5-a]pyridine-3-carbonitrile] | 3.39 nM | 65.2 nM | 0.47 nM | 15 nM | good inhibitory activity | 76.9 nM | good inhibitory activity |
| COc1ccc(CN2C3CC2CN(c2cnc(-c4cc(N5CCOCC5)cn5ncc(C#N)c45)cn2)C3)cn1 [Compound 66, 4-(5-(6-((6-methoxypyridin-3-yl)methyl)-3,6-diazabicyclo[3.1.1]heptyl-3-yl)pyrazin-2-yl)-6-morpholinopyrazolo[1,5-a]pyridine-3-carbonitrile] | 6.21 nM | 318 nM | 0.82 nM | 26.7 nM | good inhibitory activity | 173 nM | good inhibitory activity |
| COc1ccc(CN2C3CC2CN(c2ccc(-c4cc(NCC(C)C)cn5ncc(C#N)c45)cn2)C3)cn1 [Compound 67, 6-(isobutylamino)-4-(6-(6-((6-methoxypyridin-3-yl)methyl)-3,6-diazabicyclo[3.1.1]hept-3-yl)pyridin-3-yl)pyrazolo[1,5-a]pyridine-3-carbonitrile] | 2.19 nM | 45.4 nM | 0.15 nM | 11 nM | good inhibitory activity | 90.9 nM | good inhibitory activity |
| CCCCNc1cc(-c2ccc(N3CC4CC(C3)N4Cc3ccc(OC)nc3)nc2)c2c(C#N)cnn2c1 [Compound 68, 6-(butylamino)-4-(6-(6-((6-methoxypyridin-3-yl)methyl)-3,6-diazabicyclo[3.1.1]hept-3-yl)pyridin-3-yl)pyrazolo[1,5-a]pyridine-3-carbonitrile] | 4.19 nM | 59.8 nM | 0.37 nM | 6.18 nM | good inhibitory activity | 49.1 nM | good inhibitory activity |
